# Tests used:
# [1] = test system: OF1 mice; experiment: Murine maximal electroshock test (MES test); assay type: in vivo, mouse; details: for ED50: Mus musculus, po, pre-treatment time 1 h; for MES-Test (1 h, po) % protection @ 50: p.o., percentage of protected mice, printed '@ 50' (mg/kg)
# Method: Compounds of the invention were tested in OF1 mice using the maximal electroshock test (MES Test) described in detail by Schmutz et al., Naunyn-Schmiedeberg's Arch Pharmacol 1990, 342, 61-66. Briefly, generalized tonic-clonic convulsions of the hind extremities were induced by passing electrical current through temporal electrodes (50 Hz, 18 mA, 0.2 s). […] 30 mg/kg carbamazepine was used as a positive control; mice were classified as protected by a compound if the duration of the seizure lasted only 3 second or less. Five mice were used for each treatment condition and the percentage of protected mice was used as readout (i.e. a compound could give 0%, 20%, 40%, 60%, 80% or 100% protection). Compounds of the invention were given at a dose of 50 mg/kg, p.o., 1 hour prior to induction of convulsions (i.e. “pre-treatment time−1 h”).
# ED50 values (ED: effective dose) were calculated using GraphPad Prism, v4.02.
# 15 s after shock administration, mouse blood was collected for determination of compounds' blood exposure.
# [2] = test system: mouse; experiment: Oral activity in vivo (audiogenic mouse test and/or MES test); details: oral administration
# Method: The oral bioavailability was tested using the audiogenic mouse test (Audiogenic seizures, R. L. Collins; Chapter 14, pages: 347-372. In: Experimental Models of Epilepsy; By: Pupura, Penry, Tower, Woodbury, Waiter, Raven Press, New York, 1972. Standard Book Number: 0-911216-26-X) and/or the MES test.
# [3] = test system: OF1 mice; experiment: Murine maximal electroshock test (MES test); assay type: in vivo, mouse; details: p.o., percentage of protected mice
SMILES,ED50 [1] [mg/kg],In vivo orally active [2],other results
"CCC(O)c1cc2c(=O)n(NS(C)(=O)=O)c(=O)[nH]c2cc1C(F)(F)F (centres unmarked) [Compound A-3, N-[6-(1-Hydroxy-propyl)-2,4-dioxo-7-trifluoromethyl-1,4-dihydro-2H-quinazolin-3-yl]-methanesulfonamide]",19.6,Yes,–
"Cn1nccc1-c1cc2c(=O)n(NS(C)(=O)=O)c(=O)[nH]c2cc1C(C)(F)F [Compound C-15, N-[7-(1,1-difluoro-ethyl)-6-(2-methyl-2H-pyrazol-3-yl)-2,4-dioxo-1,4-dihydro-2H-quinazolin-3-yl]-methanesulfonamide]",–,Yes,"MES-Test (1 h, po) % protection @ 20 ([3]; printed '@ 20' (mg/kg)): 80% @ 20^"
"CC(C)n1nccc1-c1cc2c(=O)n(NS(C)(=O)=O)c(=O)[nH]c2cc1C(C)(F)F [Compound C-16, N-[7-(1,1-difluoro-ethyl)-6-(2-isopropyl-2H-pyrazol-3-yl)-2,4-dioxo-1,4-dihydro-2H-quinazolin-3-yl]-methanesulfonamide]",–,Yes,–
"COCCn1nccc1-c1cc2c(=O)n(NS(C)(=O)=O)c(=O)[nH]c2cc1C(C)C [Compound C-1, N-{7-Isopropyl-6-[2-(2-methoxy-ethyl)-2H-pyrazol-3-yl]-2,4-dioxo-1,4-dihydro-2H-quinazolin-3-yl}-methanesulfonamide]",–,yes,"MES-Test (1 h, po) % protection @ 25 ([3]; printed '@ 25' (mg/kg)): 40% @ 25^"
"CC(C)c1cc2[nH]c(=O)n(NS(C)(=O)=O)c(=O)c2cc1-c1ccnn1C(C)C [Compound C-8, N-[7-Isopropyl-6-(2-isopropyl-2H-pyrazol-3-yl)-2,4-dioxo-1,4-dihydro-2H-quinazolin-3-yl]-methanesulfonamide]",–,yes,"MES-Test (1 h, po) % protection @ 50 [1]: 40% @ 50^"
"CCc1cc2[nH]c(=O)n(NS(C)(=O)=O)c(=O)c2cc1-c1ccnn1CC [Compound C-12, N-[7-Ethyl-6-(2-ethyl-2H-pyrazol-3-yl)-2,4-dioxo-1,4-dihydro-2H-quinazolin-3-yl]-methanesulfonamide]",42.8,Yes,–
"Cn1nccc1-c1cc2c(=O)n(NS(C)(=O)=O)c(=O)[nH]c2cc1C(F)F [Compound C-9, N-[7-Difluoromethyl-6-(2-methyl-2H-pyrazol-3-yl)-2,4-dioxo-1,4-dihydro-2H-quinazolin-3-yl]-methanesulfonamide]",7.5,Yes,–
"CC(F)c1cc2[nH]c(=O)n(NS(C)(=O)=O)c(=O)c2cc1-c1ccnn1C(C)C (centres unmarked) [Compound C-17, N-[7-(1-fluoro-ethyl)-6-(2-isopropyl-2H-pyrazol-3-yl)-2,4-dioxo-1,4-dihydro-2H-quinazolin-3-yl]-methanesulfonamide]",> 20,Yes,–
"CS(=O)(=O)Nn1c(=O)[nH]c2cc(C(F)(F)F)c(C3CCCO3)cc2c1=O (centres unmarked) [Compound B-2, N-[2,4-Dioxo-6-(tetrahydro-furan-2-yl)-7-trifluoromethyl-1,4-dihydro-2H-quinazolin-3-yl]-methanesulfonamide]",–,Yes,–
"COCCC(O)c1cc2c(=O)n(NS(C)(=O)=O)c(=O)[nH]c2cc1C(F)(F)F (centres unmarked) [Compound A-18, N-[6-(1-Hydroxy-3-methoxy-propyl)-2,4-dioxo-7-trifluoromethyl-1,4-dihydro-2H-quinazolin-3-yl]-methanesulfonamide]",–,Yes,–
"CCOC(C)c1cc2c(=O)n(NS(C)(=O)=O)c(=O)[nH]c2cc1C(F)(F)F (centres unmarked) [Compound A-5, N-[6-(1-Ethoxy-ethyl)-2,4-dioxo-7-trifluoromethyl-1,4-dihydro-2H-quinazolin-3-yl]-methanesulfonamide]",8.8,Yes,–
"Cn1nncc1-c1cc2c(=O)n(NS(C)(=O)=O)c(=O)[nH]c2cc1C(F)(F)F [Comparative, N-(6-(1-methyl-1H-1,2,3-triazol-5-yl)-2,4-dioxo-7-trifluoromethyl-1,4-dihydro-2H-quinazolin-3-yl]-methanesulfonamide, reference compound]",–,No,"MES-Test (1 h, po) % protection @ 50 [1]: 0% @ 50^"
"CC(C)n1nccc1-c1cc2c(=O)n(NS(C)(=O)=O)c(=O)[nH]c2cc1C(F)(F)F [Compound C-2, N-[6-(2-Isopropyl-2H-pyrazol-3-yl)-2,4-dioxo-7-trifluoromethyl-1,4-dihydro-2H-quinazolin-3-yl]-methanesulfonamide]",17.7,Yes,–
"CCOC(CC)c1cc2c(=O)n(NS(C)(=O)=O)c(=O)[nH]c2cc1C(F)(F)F (centres unmarked) [Compound A-13, N-[6-(1-Ethoxy-propyl)-2,4-dioxo-7-trifluoromethyl-1,4-dihydro-2H-quinazolin-3-yl]-methanesulfonamide]",–,Yes,–
"CCC(OC(C)C)c1cc2c(=O)n(NS(C)(=O)=O)c(=O)[nH]c2cc1C(F)(F)F (centres unmarked) [Compound A-7, N-[6-(1-Isopropoxy-propyl)-2,4-dioxo-7-trifluoromethyl-1,4-dihydro-2H-quinazolin-3-yl]-methanesulfonamide]",24.7,Yes,–
"CCCC(O)c1cc2c(=O)n(NS(C)(=O)=O)c(=O)[nH]c2cc1C(F)(F)F (centres unmarked) [Compound A-15, N-[6-(1-Hydroxy-butyl)-2,4-dioxo-7-trifluoromethyl-1,4-dihydro-2H-quinazolin-3-yl]-methanesulfonamide]",35,Yes,–
"CC(C)n1nccc1-c1cc2c(=O)n(NS(C)(=O)=O)c(=O)[nH]c2cc1C(F)F [Compound C-10, N-[7-Difluoromethyl-6-(2-isopropyl-2H-pyrazol-3-yl)-2,4-dioxo-1,4-dihydro-2H-quinazolin-3-yl]-methanesulfonamide]",20.3,Yes,–
"CS(=O)(=O)Nn1c(=O)[nH]c2cc(C(F)(F)F)c(-c3ccnn3O)cc2c1=O [Compound C-5, N-[6-(2-Hydroxy-2H-pyrazol-3-yl)-2,4-dioxo-7-trifluoromethyl-1,4-dihydro-2H-quinazolin-3-yl]-methanesulfonamide]",–,Yes,–
"CC(C)OC(C)c1cc2c(=O)n(NS(C)(=O)=O)c(=O)[nH]c2cc1C(F)(F)F (centres unmarked) [Compound A-4, N-[6-(1-Isopropoxy-ethyl)-2,4-dioxo-7-trifluoromethyl-1,4-dihydro-2H-quinazolin-3-yl]-methanesulfonamide]",15.6,Yes,–
"CCc1cc2[nH]c(=O)n(NS(C)(=O)=O)c(=O)c2cc1-c1ccnn1C [Compound C-11, N-[7-Ethyl-6-(2-methyl-2H-pyrazol-3-yl)-2,4-dioxo-1,4-dihydro-2H-quinazolin-3-yl]-methanesulfonamide]",6.1,Yes,–
"COCCn1nccc1-c1cc2c(=O)n(NS(C)(=O)=O)c(=O)[nH]c2cc1C(F)(F)F [Compound C-4, N-{6-[2-(2-Methoxy-ethyl)-2H-pyrazol-3-yl]-2,4-dioxo-7-trifluoromethyl-1,4-dihydro-2H-quinazolin-3-yl}-methanesulfonamide]",–,Yes,–
"CCc1cc2[nH]c(=O)n(NS(C)(=O)=O)c(=O)c2cc1-c1ccnn1C(C)C [Compound C-6, N-[7-Ethyl-6-(2-isopropyl-2H-pyrazol-3-yl)-2,4-dioxo-1,4-dihydro-2H-quinazolin-3-yl]-methanesulfonamide]",–,yes,"MES-Test (1 h, po) % protection @ 50 [1]: 20% @ 50^"
"COC(C)c1cc2c(=O)n(NS(C)(=O)=O)c(=O)[nH]c2cc1C(F)(F)F (centres unmarked) [Compound A-2, N-[6-(1-Methoxy-ethyl)-2,4-dioxo-7-trifluoromethyl-1,4-dihydro-2H-quinazolin-3-yl]-methanesulfonamide]",6,Yes,–
"Cn1nccc1-c1cc2c(=O)n(NS(C)(=O)=O)c(=O)[nH]c2cc1C(F)(F)F [Compound C-18, N-[6-(2-Methyl-2H-pyrazol-3-yl)-2,4-dioxo-7-trifluoromethyl-1,4-dihydro-2H-quinazolin-3-yl]-methanesulfonamide]",14.8,Yes,–
"CC(O)c1cc2c(=O)n(NS(C)(=O)=O)c(=O)[nH]c2cc1C(F)(F)F (centres unmarked) [Compound A-1, N-[6-(1-Hydroxy-ethyl)-2,4-dioxo-7-trifluoromethyl-1,4-dihydro-2H-quinazolin-3-yl]-methanesulfonamide]",64,Yes,–
"CC(C)c1cc2[nH]c(=O)n(NS(C)(=O)=O)c(=O)c2cc1-c1ccnn1C [Compound C-7, N-[7-Isopropyl-6-(2-methyl-2H-pyrazol-3-yl)-2,4-dioxo-1,4-dihydro-2H-quinazolin-3-yl]-methanesulfonamide]",6.9,Yes,–
"CC(OC1CCCC1)c1cc2c(=O)n(NS(C)(=O)=O)c(=O)[nH]c2cc1C(F)(F)F (centres unmarked) [Compound A-14, N-[6-(1-Cyclopentyloxy-ethyl)-2,4-dioxo-7-trifluoromethyl-1,4-dihydro-2H-quinazolin-3-yl]-methanesulfonamide]",–,yes,–

# Reference: US20120122903A1, “1-H-QUINAZOLINE-2, 4-DIONES FOR USE IN THE TREATMENT OF NEURONAL CEROID LIPOFUSCINOSIS” (priority 2009, published 2012)
